Measured values: the NIST ThermoML archive (doi:10.1016/j.jct.2016.08.005)

Details: Liquid, Vibrating tube method

Cc1ccc(C)s1 [2,5-dimethylthiophene]
Details | mass density [kg/m3]
283.15 K, 100 kPa | 995.51
283.15 K, 2000 kPa | 996.96
283.15 K, 5000 kPa | 999.21
283.15 K, 7000 kPa | 1000.68
283.15 K, 10000 kPa | 1002.83
283.15 K, 15000 kPa | 1006.35
283.15 K, 20000 kPa | 1009.74
283.15 K, 25000 kPa | 1013.04
283.15 K, 30000 kPa | 1016.24
283.15 K, 35000 kPa | 1019.33
283.15 K, 40000 kPa | 1022.34
283.15 K, 45000 kPa | 1025.27
283.15 K, 50000 kPa | 1028.12
283.15 K, 55000 kPa | 1030.9
283.15 K, 60000 kPa | 1033.6
283.15 K, 65000 kPa | 1036.24
288.15 K, 100 kPa | 990.41
288.15 K, 2000 kPa | 991.9
288.15 K, 5000 kPa | 994.21
288.15 K, 7000 kPa | 995.72
288.15 K, 10000 kPa | 997.94
288.15 K, 15000 kPa | 1001.53
288.15 K, 20000 kPa | 1005.01
288.15 K, 25000 kPa | 1008.38
288.15 K, 30000 kPa | 1011.66
288.15 K, 35000 kPa | 1014.81
288.15 K, 40000 kPa | 1017.89
288.15 K, 45000 kPa | 1020.88
288.15 K, 50000 kPa | 1023.78
288.15 K, 55000 kPa | 1026.62
288.15 K, 60000 kPa | 1029.38
288.15 K, 65000 kPa | 1032.06
293.15 K, 100 kPa | 985.3
293.15 K, 2000 kPa | 986.82
293.15 K, 5000 kPa | 989.21
293.15 K, 7000 kPa | 990.74
293.15 K, 10000 kPa | 993.02
293.15 K, 15000 kPa | 996.71
293.15 K, 20000 kPa | 1000.28
293.15 K, 25000 kPa | 1003.72
293.15 K, 30000 kPa | 1007.07
293.15 K, 35000 kPa | 1010.31
293.15 K, 40000 kPa | 1013.45
293.15 K, 45000 kPa | 1016.49
293.15 K, 50000 kPa | 1019.47
293.15 K, 55000 kPa | 1022.35
293.15 K, 60000 kPa | 1025.15
293.15 K, 65000 kPa | 1027.88
298.15 K, 100 kPa | 980.2
298.15 K, 2000 kPa | 981.78
298.15 K, 5000 kPa | 984.2
298.15 K, 7000 kPa | 985.8
298.15 K, 10000 kPa | 988.14
298.15 K, 15000 kPa | 991.93
298.15 K, 20000 kPa | 995.59
298.15 K, 25000 kPa | 999.13
298.15 K, 30000 kPa | 1002.53
298.15 K, 35000 kPa | 1005.84
298.15 K, 40000 kPa | 1009.04
298.15 K, 45000 kPa | 1012.17
298.15 K, 50000 kPa | 1015.2
298.15 K, 55000 kPa | 1018.14
298.15 K, 60000 kPa | 1021.01
298.15 K, 65000 kPa | 1023.8
303.15 K, 100 kPa | 975.1
303.15 K, 2000 kPa | 976.72
303.15 K, 5000 kPa | 979.23
303.15 K, 7000 kPa | 980.88
303.15 K, 10000 kPa | 983.27
303.15 K, 15000 kPa | 987.17
303.15 K, 20000 kPa | 990.9
303.15 K, 25000 kPa | 994.52
303.15 K, 30000 kPa | 998.02
303.15 K, 35000 kPa | 1001.4
303.15 K, 40000 kPa | 1004.69
303.15 K, 45000 kPa | 1007.85
303.15 K, 50000 kPa | 1010.94
303.15 K, 55000 kPa | 1013.93
303.15 K, 60000 kPa | 1016.85
303.15 K, 65000 kPa | 1019.68
308.15 K, 100 kPa | 970
308.15 K, 2000 kPa | 971.66
308.15 K, 5000 kPa | 974.22
308.15 K, 7000 kPa | 975.91
308.15 K, 10000 kPa | 978.38
308.15 K, 15000 kPa | 982.36
308.15 K, 20000 kPa | 986.2
308.15 K, 25000 kPa | 989.91
308.15 K, 30000 kPa | 993.47
308.15 K, 35000 kPa | 996.93
308.15 K, 40000 kPa | 1000.28
308.15 K, 45000 kPa | 1003.53
308.15 K, 50000 kPa | 1006.66
308.15 K, 55000 kPa | 1009.75
308.15 K, 60000 kPa | 1012.72
308.15 K, 65000 kPa | 1015.59
313.15 K, 100 kPa | 964.84
313.15 K, 2000 kPa | 966.6
313.15 K, 5000 kPa | 969.22
313.15 K, 7000 kPa | 970.97
313.15 K, 10000 kPa | 973.5
313.15 K, 15000 kPa | 977.58
313.15 K, 20000 kPa | 981.52
313.15 K, 25000 kPa | 985.31
313.15 K, 30000 kPa | 988.97
313.15 K, 35000 kPa | 992.49
313.15 K, 40000 kPa | 995.92
313.15 K, 45000 kPa | 999.23
313.15 K, 50000 kPa | 1002.44
313.15 K, 55000 kPa | 1005.56
313.15 K, 60000 kPa | 1008.58
313.15 K, 65000 kPa | 1011.53
318.15 K, 100 kPa | 959.75
318.15 K, 2000 kPa | 961.52
318.15 K, 5000 kPa | 964.24
318.15 K, 7000 kPa | 966
318.15 K, 10000 kPa | 968.6
318.15 K, 15000 kPa | 972.8
318.15 K, 20000 kPa | 976.83
318.15 K, 25000 kPa | 980.72
318.15 K, 30000 kPa | 984.44
318.15 K, 35000 kPa | 988.06
318.15 K, 40000 kPa | 991.55
318.15 K, 45000 kPa | 994.93
318.15 K, 50000 kPa | 998.2
318.15 K, 55000 kPa | 1001.39
318.15 K, 60000 kPa | 1004.46
318.15 K, 65000 kPa | 1007.46
323.15 K, 100 kPa | 954.64
323.15 K, 2000 kPa | 956.46
323.15 K, 5000 kPa | 959.26
323.15 K, 7000 kPa | 961.09
323.15 K, 10000 kPa | 963.75
323.15 K, 15000 kPa | 968.05
323.15 K, 20000 kPa | 972.19
323.15 K, 25000 kPa | 976.16
323.15 K, 30000 kPa | 979.99
323.15 K, 35000 kPa | 983.67
323.15 K, 40000 kPa | 987.24
323.15 K, 45000 kPa | 990.69
323.15 K, 50000 kPa | 994.03
323.15 K, 55000 kPa | 997.27
323.15 K, 60000 kPa | 1000.41
323.15 K, 65000 kPa | 1003.46
328.15 K, 100 kPa | 949.46
328.15 K, 2000 kPa | 951.34
328.15 K, 5000 kPa | 954.21
328.15 K, 7000 kPa | 956.1
328.15 K, 10000 kPa | 958.85
328.15 K, 15000 kPa | 963.27
328.15 K, 20000 kPa | 967.5
328.15 K, 25000 kPa | 971.57
328.15 K, 30000 kPa | 975.49
328.15 K, 35000 kPa | 979.25
328.15 K, 40000 kPa | 982.9
328.15 K, 45000 kPa | 986.42
328.15 K, 50000 kPa | 989.84
328.15 K, 55000 kPa | 993.13
328.15 K, 60000 kPa | 996.35
328.15 K, 65000 kPa | 999.44
333.15 K, 100 kPa | 944.28
333.15 K, 2000 kPa | 946.2
333.15 K, 5000 kPa | 949.16
333.15 K, 7000 kPa | 951.09
333.15 K, 10000 kPa | 953.92
333.15 K, 15000 kPa | 958.46
333.15 K, 20000 kPa | 962.79
333.15 K, 25000 kPa | 966.97
333.15 K, 30000 kPa | 970.97
333.15 K, 35000 kPa | 974.83
333.15 K, 40000 kPa | 978.55
333.15 K, 45000 kPa | 982.15
333.15 K, 50000 kPa | 985.62
333.15 K, 55000 kPa | 988.98
333.15 K, 60000 kPa | 992.25
333.15 K, 65000 kPa | 995.41
338.15 K, 100 kPa | 939.09
338.15 K, 2000 kPa | 941.08
338.15 K, 5000 kPa | 944.14
338.15 K, 7000 kPa | 946.13
338.15 K, 10000 kPa | 949.02
338.15 K, 15000 kPa | 953.67
338.15 K, 20000 kPa | 958.14
338.15 K, 25000 kPa | 962.41
338.15 K, 30000 kPa | 966.51
338.15 K, 35000 kPa | 970.46
338.15 K, 40000 kPa | 974.25
338.15 K, 45000 kPa | 977.91
338.15 K, 50000 kPa | 981.46
338.15 K, 55000 kPa | 984.88
338.15 K, 60000 kPa | 988.2
338.15 K, 65000 kPa | 991.43
